The target in the assay is T1, human ROCKα/ROCKII mix (Homo sapiens, UniProt O75116).
T1 construct: purchased Upstate Biotechnology 14-451
Kind of assay: ROCK inhibition, fluorescence polarization (FP) assay with ROCK IMAP Kit. It is filed as biochemical. On the procedure:
The compounds were tested for inhibition of human ROCKα/ROCKII mix.
The inhibition assays were performed with a fluorescence polarization (FP) assay using the commercially available ROCK IMAP Kit from Molecular Devices (Product ID. No. R8093), essentially in accordance with the protocol supplied by the manufacturer. […] The enzyme mix ROCKα/ROCKII was obtained from Upstate Biotechnology (Product ID No 14-451).
In summary, all compounds were screened in the wells of a 384 well plate for enzymatic inhibition with concentrations varying from 100 μM to 0.3 nM using a stepwise 3 (or 2)-fold dilution.
To perform the assay, 1 μl of a solution of the compound to be tested in DMSO (at each concentration) was added to 2 μl of a solution of the enzyme in 10 mM Tris-HCl, 10 mM MgCl2, 0.1% BSA, 0.05% NaN3, pH 7.2. The final concentration of the enzyme was 2.6 nM.
After incubating for 30 minutes at RT, 2 μl of a mixture of ATP and the protein substrate in 10 mM Tris-HCl, 10 mM MgCl2, 0.1% BSA, 0.05% NaN3, pH 7.2 was added. The final concentration of the ATP was 10 μM and final concentration of protein substrate was 0.2 μM.
After incubating for 60 minutes at RT, 12 μl of the IMAP Binding Solution (mix of the IMAP Binding Buffer A (1×) and the IMAP Binding Reagent (from the ROCK IMAP kit)) was added.
The mixture thus obtained (total volume: 17 μl) was incubated for 60 minutes at RT, upon which the fluorescence polarization was measured using an automated plate reader (Perkin Elmer, Model Envision 2100-0010 HTS) with FP filters: excitation filter FITC FP 480 and emission filters FITC FP P-pol 535 and FITC FP S-pol 535 (Perkin-Elmer). The results were fitted to a curve using the XL-Fit algorithm and IC50 values were calculated for each fitted curve, again using the XL-Fit algorithm.
On the technique in general: Polarisation of emitted light reports the rotation of a fluorescent probe.

The mark [1] stands for this setting: Table 1, compounds of Formula IV20.
[2] abbreviates: Table 2, compounds of Formula V20.
The mark [3] stands for this setting: Table 3, compounds of Formula III20.

Counter-ions that a name gives are not always drawn.

T1 sequence (O75116 whole entry): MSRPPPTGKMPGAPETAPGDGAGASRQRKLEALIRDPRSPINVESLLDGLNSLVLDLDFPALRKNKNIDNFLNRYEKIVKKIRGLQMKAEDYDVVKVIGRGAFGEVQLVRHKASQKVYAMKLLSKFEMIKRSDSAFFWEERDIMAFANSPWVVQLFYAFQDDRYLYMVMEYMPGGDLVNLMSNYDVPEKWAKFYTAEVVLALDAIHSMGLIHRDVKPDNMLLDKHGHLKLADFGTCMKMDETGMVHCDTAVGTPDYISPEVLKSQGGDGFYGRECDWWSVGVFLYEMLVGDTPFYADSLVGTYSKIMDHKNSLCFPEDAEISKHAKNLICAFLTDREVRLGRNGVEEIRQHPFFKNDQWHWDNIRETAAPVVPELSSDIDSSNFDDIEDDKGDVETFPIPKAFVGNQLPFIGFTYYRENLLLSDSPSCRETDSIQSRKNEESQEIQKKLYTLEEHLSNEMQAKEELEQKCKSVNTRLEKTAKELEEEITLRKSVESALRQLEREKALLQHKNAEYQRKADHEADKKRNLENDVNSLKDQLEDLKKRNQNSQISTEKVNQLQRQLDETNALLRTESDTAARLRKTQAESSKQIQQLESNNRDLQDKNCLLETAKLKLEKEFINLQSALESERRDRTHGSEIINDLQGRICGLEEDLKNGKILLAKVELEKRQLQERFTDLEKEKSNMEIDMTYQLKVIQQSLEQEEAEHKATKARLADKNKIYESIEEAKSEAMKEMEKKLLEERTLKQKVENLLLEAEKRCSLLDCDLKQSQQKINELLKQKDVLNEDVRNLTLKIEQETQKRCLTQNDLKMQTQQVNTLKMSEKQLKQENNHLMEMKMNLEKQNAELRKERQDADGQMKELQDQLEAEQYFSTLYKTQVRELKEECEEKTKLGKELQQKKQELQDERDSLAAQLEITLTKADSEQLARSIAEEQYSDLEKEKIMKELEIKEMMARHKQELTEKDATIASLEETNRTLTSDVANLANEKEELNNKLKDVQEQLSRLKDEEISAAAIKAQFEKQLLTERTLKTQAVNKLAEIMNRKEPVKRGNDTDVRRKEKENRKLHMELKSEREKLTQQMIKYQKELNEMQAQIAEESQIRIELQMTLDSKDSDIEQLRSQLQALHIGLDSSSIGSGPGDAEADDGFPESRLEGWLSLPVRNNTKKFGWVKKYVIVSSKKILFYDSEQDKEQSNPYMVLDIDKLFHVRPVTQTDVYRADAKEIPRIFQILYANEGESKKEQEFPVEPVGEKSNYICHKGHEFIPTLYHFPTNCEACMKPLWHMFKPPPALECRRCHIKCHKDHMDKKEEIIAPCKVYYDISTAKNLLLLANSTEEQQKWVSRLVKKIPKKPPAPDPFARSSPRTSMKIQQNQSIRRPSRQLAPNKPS

As a reminder, the IC50 is the concentration that gives 50% inhibition. A low value points to greater potency in that assay. The compound `CS(=O)(=O)NCCNC(=O)C(N)c1ccc(C(=O)Nc2ccncc2)cc1` (stereo not shown) [Compound 40, 4-[amino-(2-methanesulfonylamino-ethylcarbamoyl)-methyl]-N-pyridin-4-yl-benzamide] showed a concentration for half-maximal inhibition (IC50) under setting [1] of 0.5 to 5 µM.
`CCCCS(=O)(=O)NCC(N)c1ccc(C(=O)Nc2ccncc2)cc1` (stereo not shown) [Compound 58, 4-[1-amino-2-(butane-1-sulfonylamino)-ethyl]-N-pyridin-4-yl-benzamide] yielded an IC50 under setting [2] of less than 0.5 µM.
Take `NC(c1ccc(C(=O)Nc2ccncc2)cc1)C1CCCN1S(=O)(=O)c1ccccc1F` (stereo not shown) [Compound 136, 4-{Amino-[1-(2-fluoro-benzenesulfonyl)-pyrrolidin-2-yl]-methyl}-N-pyridin-4-yl-benzamide dihydrochloric acid salt]: for the setting “Table 4, compounds 132 to 156”, the IC50 is 0.5 to 5 µM.
As for `NC(C(=O)NC1CCCCC1)c1ccc(C(=O)Nc2ccncc2)cc1` (stereo not shown) [Compound 32, 4-(amino-cyclohexylcarbamoyl-methyl)-N-pyridin-4-yl-benzamide], the half-maximal inhibitory concentration (IC50) under setting [1] lay within 0.5 to 5 µM.
`NC(CC(=O)N1CCc2ccc(Cl)cc2C1)c1ccc(C(=O)Nc2ccncc2)cc1` (stereo not shown) [Compound 103, 4[1-amino-3-(7-chloro-3,4-dihydro-1H-isoquinolin-2-yl)-3-oxo-propyl]-N-pyridin-4-yl-benzamide] had a concentration for half-maximal inhibition (IC50) under setting [3] of less than 0.5 µM.
As to `NC(c1ccc(C(=O)Nc2ccncc2)cc1)C1CCCN1S(=O)(=O)c1ccc(Cl)cc1` (stereo not shown) [Compound 135, 4-{Amino-[1-(4-chloro-benzenesulfonyl)-pyrrolidin-2-yl]-methyl}-N-pyridin-4-yl-benzamide dihydrochloric acid salt], the IC50 (Table 4, compounds 132 to 156) lay in the range of 0.5 to 5 µM.
Turning to `NC(C(=O)N1CCC(O)(c2ccccc2)CC1)c1ccc(C(=O)Nc2ccncc2)cc1` (stereo not shown) [Compound 38, 4-[1-amino-2-(4-hydroxy-4-phenyl-piperidin-1-yl)-2-oxo-ethyl]-N-pyridin-4-yl-benzamide], the IC50 under setting [1] is 0.5 to 5 µM.
Compound `COc1ccc(CNC(=O)C(N)c2ccc(C(=O)Nc3ccncc3)cc2)cc1` (stereo not shown) [Compound 8, 4-[amino-(4-methoxy-benzylcarbamoyl)-methyl]-N-pyridin-4-yl-benzamide] came in with an IC50 under setting [1] of less than 0.5 µM.
Regarding `CC1CN(C(=O)CC(N)c2ccc(C(=O)Nc3ccncc3)cc2)CC(C)O1` (stereo not shown) [Compound 113, 4-[1-amino-3-(2,6-dimethyl-morpholin-4-yl)-3-oxo-propyl]-N-pyridin-4-yl-benzamide], the IC50 under setting [3] is less than 0.5 µM.
Under setting [2], `Cc1noc(C)c1S(=O)(=O)NCC(N)c1ccc(C(=O)Nc2ccncc2)cc1` (stereo not shown) [Compound 79, 4-[1-amino-2-(3,5-dimethyl-isoxazole-4-sulfonylamino)-ethyl]-N-pyridin-4-yl-benzamide] registered an IC50 of less than 0.5 µM.
In turn, `NC(C(=O)NCc1ccncc1)c1ccc(C(=O)Nc2ccncc2)cc1` (stereo not shown) [Compound 11, 4-{amino-[(pyridin-4-ylmethyl)-carbamoyl]-methyl}-N-pyridin-4-yl-benzamide] yielded a half-inhibitory concentration (IC50) under setting [1] of 0.5 to 5 µM.
Compound `NC(CC(=O)N1CC=C(c2ccc(F)cc2)CC1)c1ccc(C(=O)Nc2ccncc2)cc1` (stereo not shown) [Compound 118, 4-{1-amino-3[4-(4-fluoro-phenyl)-3,6-dihydro-2H-pyridin-1-yl]-3-oxo-propyl}-N-pyridin-4-yl-benzamide] displayed a half-inhibitory concentration (IC50) under setting [3] of less than 0.5 µM.
As to `NC(CNS(=O)(=O)c1ccccc1F)c1ccc(C(=O)Nc2ccncc2)cc1` (stereo not shown) [Compound 66, 4-[1-amino-2-(2-fluoro-benzenesulfonylamino)-ethyl]-N-pyridin-4-yl-benzamide], the 50% inhibitory concentration (IC50) under setting [2] was less than 0.5 µM.
Under setting [1], `CC(C)N1CCN(C(=O)C(N)c2ccc(C(=O)Nc3ccncc3)cc2)CC1` (stereo not shown) [Compound 46, 4-[1-amino-2-(4-isopropyl-piperazin-1-yl)-2-oxo-ethyl]-N-pyridin-4-yl-benzamide] showed an IC50 of 0.5 to 5 µM.
On to `NC(C(=O)N1CCC(c2nc3ccccc3o2)CC1)c1ccc(C(=O)Nc2ccncc2)cc1` (stereo not shown) [Compound 30, 4-[1-amino-2-(4-benzooxazol-2-yl-piperidin-1-yl)-2-oxo-ethyl]-N-pyridin-4-yl-benzamide], for which, under setting [1], the IC50 is less than 0.5 µM.
In turn, `NC(CC(=O)N1CCC(c2ccccc2)CC1)c1ccc(C(=O)Nc2ccncc2)cc1` (stereo not shown) [Compound 117, 4-[1-amino-3-(4-phenyl-piperidin-1-yl)-3-oxo-propyl]-N-pyridin-4-yl-benzamide] gave an IC50 under setting [3] of less than 0.5 µM.
The same measure, in the same setting: the figure for `NC(CC(=O)N1CCOCC1)c1ccc(C(=O)Nc2ccncc2)cc1` (stereo not shown) [Compound 112, 4-(1-amino-3-morpholin-4-yl-3-oxo-propyl)-N-pyridin-4-yl-benzamide] is less than 0.5 µM; for `NC(CC(=O)N1CCc2c([nH]c3ccccc23)C1)c1ccc(C(=O)Nc2ccncc2)cc1` (stereo not drawn) [Compound 128, 4-[1-amino-3-oxo-(1,3,4,9-tetrahydro-β-carbolin-2-yl)-propyl]-N-pyridin-4-yl-benzamide] it is less than 0.5 µM.
`CS(=O)(=O)NCC(N)c1ccc(C(=O)Nc2ccncc2)cc1` (stereo not shown) [Compound 55, 4-(1-amino-2-methanesulfonylamino-ethyl)-N-pyridin-4-yl-benzamide] yielded a half-maximal inhibitory concentration (IC50) under setting [2] of less than 0.5 µM.
In turn, `NC(CC(=O)N1CCc2c([nH]c3ccccc23)C1c1cccc(Cl)c1)c1ccc(C(=O)Nc2ccncc2)cc1` (stereo not drawn) [Compound 129, 4-{1-amino-3-[1-(3-chloro-phenyl)-1,3,4,9-tetrahydro-β-carbolin-2-yl]-3-oxo-propyl}-N-pyridin-4-yl-benzamide] registered an IC50 under setting [3] of 0.5 to 5 µM.
For the setting “Table 4, compounds 132 to 156”, `CN(CC(N)c1ccc(C(=O)Nc2ccncc2)cc1)S(=O)(=O)c1ccccc1` (stereo not shown) [Compound 139, 4-[1-Amino-2-(benzenesulfonyl-methyl-amino)-ethyl]-N-pyridin-4-yl-benzamide dihydrochloric acid salt] had an IC50 of 0.5 to 5 µM.
In the case of `NC(CC(=O)N1CCCCC1c1ccc(F)cc1)c1ccc(C(=O)Nc2ccncc2)cc1` (stereo not shown) [Compound 97, 4-{1-amino-3-[2-(4-fluoro-phenyl)-piperidin-1-yl]-3-oxo-propyl}-N-pyridin-4-yl-benzamide], the IC50 under setting [3] was less than 0.5 µM.
Under setting [2], `NC(CNS(=O)(=O)c1cccc(Oc2ccccc2)c1)c1ccc(C(=O)Nc2ccncc2)cc1` (stereo not shown) [Compound 73, 4-[1-amino-2-(3-phenoxy-benzenesulfonylamino)-ethyl]-N-pyridin-4-yl-benzamide] gave an IC50 of 0.5 to 5 µM.
For the compound `CN(Cc1ccccc1)C(=O)C(N)c1ccc(C(=O)Nc2ccncc2)cc1` (stereo not shown) [Compound 3, 4-[amino-(benzyl-methyl-carbamoyl)-methyl]-N-pyridin-4-yl-benzamide], under setting [1], the half-inhibitory concentration (IC50) was less than 0.5 µM.
As for `Cc1ccc(S(=O)(=O)NCC(N)c2ccc(C(=O)Nc3ccncc3)cc2)cc1` (stereo not shown) [Compound 62, 4-[1-amino-2-(4-methyl-benzenesulfonylamino)-ethyl]-N-pyridin-4-yl-benzamide], under setting [2], the half-inhibitory concentration (IC50) was less than 0.5 µM.
Regarding `COc1ccc(S(=O)(=O)NCC(N)c2ccc(C(=O)Nc3ccncc3)cc2)cc1OC` (stereo not shown) [Compound 71, 4-[1-amino-2-(3,4-dimethoxy-benzenesulfonylamino)-ethyl]-N-pyridin-4-yl-benzamide], under setting [2], the IC50 is less than 0.5 µM.
On to `CCCCNNC(=O)C(N)c1ccc(C(=O)Nc2ccncc2)cc1` (stereo not shown) [Compound 54, 4-[amino-(N′-butyl-hydrazinocarbonyl)-methyl]-N-pyridin-4-yl-benzamide], for which, under setting [1], the half-inhibitory concentration (IC50) was less than 0.5 µM.
Take `NC(CC(=O)N1CCOCC1c1ccccc1)c1ccc(C(=O)Nc2ccncc2)cc1` (stereo not shown) [Compound 99, 4-[1-Amino-3-oxo-3-(3-phenyl-morpholin-4-yl)-propyl]-N-pyridin-4-yl-benzamide]: the IC50 under setting [3] was less than 0.5 µM.
`NC(C(=O)N1CC=C(c2ccc(F)cc2)CC1)c1ccc(C(=O)Nc2ccncc2)cc1` (stereo not shown) [Compound 29, 4-{1-amino-2-[4-(4-fluoro-phenyl)-3,6-dihydro-2H-pyridin-1-yl]-2-oxo-ethyl}-N-pyridin-4-yl-benzamide]: under setting [1], the half-inhibitory concentration (IC50) lay within 0.5 to 5 µM.
In turn, `NC(CNS(=O)(=O)c1ccccc1)c1ccc(C(=O)Nc2ccncc2)cc1` (stereo not shown) [Compound 61, 4-(1-amino-2-benzenesulfonylamino-ethyl)-N-pyridin-4-yl-benzamide] showed an IC50 under setting [2] of less than 0.5 µM.
Under setting [1], `CCC(C)(C)NC(=O)C(N)c1ccc(C(=O)Nc2ccncc2)cc1` (stereo not shown) [Compound 24, 4-[amino-(1,1-dimethyl-propylcarbamoyl)-methyl]-N-pyridin-4-yl-benzamide] gave an IC50 of 0.5 to 5 µM.
For the compound `NC(CC(=O)N1CCSC1)c1ccc(C(=O)Nc2ccncc2)cc1` (stereo not shown) [Compound 106, 4-(1-amino-3-oxo-3-thiazolidin-3-yl-propyl)-N-pyridin-4-yl-benzamide], the concentration for half-maximal inhibition (IC50) under setting [3] was less than 0.5 µM.
For the compound `COc1cccc(C2CCCCN2C(=O)CC(N)c2ccc(C(=O)Nc3ccncc3)cc2)c1` (stereo not shown) [Compound 98, 4-{1-amino-3-[2-(3-methoxy-phenyl)-piperidin-1-yl]-3-oxo-propyl}-N-pyridin-4-yl-benzamide], the IC50 under setting [3] was less than 0.5 µM.
`CC[C@H](NC(=O)C(N)c1ccc(C(=O)Nc2ccncc2)cc1)c1ccccc1` (stereo partly drawn) [Compound 5, 4-[amino-(1-(S)-phenyl-propylcarbamoyl)-methyl]-N-pyridin-4-yl-benzamide] came in with a 50% inhibitory concentration (IC50) under setting [1] of 0.5 to 5 µM.

Values taken from US20100190788A1, “Amide derivatives as kinase inhitors” (priority 2005, published 2010).
